pEC50, pIC50: −log10 of the molar value.
Experiments:
[1] = molecular target: T1, purified human topoisomerase I (Homo sapiens, UniProt P11387); test: Topoisomerase I mediated single strand break formation in DNA (in vitro); assay type: biochemical; conditions: for pEC50: PM2 DNA, 30 minutes at 37° C, median effective concentration for single strand DNA break formation; for Topo-I activity: result in words
T1 construct: purchased Topogen
T1 sequence (P11387 1-765): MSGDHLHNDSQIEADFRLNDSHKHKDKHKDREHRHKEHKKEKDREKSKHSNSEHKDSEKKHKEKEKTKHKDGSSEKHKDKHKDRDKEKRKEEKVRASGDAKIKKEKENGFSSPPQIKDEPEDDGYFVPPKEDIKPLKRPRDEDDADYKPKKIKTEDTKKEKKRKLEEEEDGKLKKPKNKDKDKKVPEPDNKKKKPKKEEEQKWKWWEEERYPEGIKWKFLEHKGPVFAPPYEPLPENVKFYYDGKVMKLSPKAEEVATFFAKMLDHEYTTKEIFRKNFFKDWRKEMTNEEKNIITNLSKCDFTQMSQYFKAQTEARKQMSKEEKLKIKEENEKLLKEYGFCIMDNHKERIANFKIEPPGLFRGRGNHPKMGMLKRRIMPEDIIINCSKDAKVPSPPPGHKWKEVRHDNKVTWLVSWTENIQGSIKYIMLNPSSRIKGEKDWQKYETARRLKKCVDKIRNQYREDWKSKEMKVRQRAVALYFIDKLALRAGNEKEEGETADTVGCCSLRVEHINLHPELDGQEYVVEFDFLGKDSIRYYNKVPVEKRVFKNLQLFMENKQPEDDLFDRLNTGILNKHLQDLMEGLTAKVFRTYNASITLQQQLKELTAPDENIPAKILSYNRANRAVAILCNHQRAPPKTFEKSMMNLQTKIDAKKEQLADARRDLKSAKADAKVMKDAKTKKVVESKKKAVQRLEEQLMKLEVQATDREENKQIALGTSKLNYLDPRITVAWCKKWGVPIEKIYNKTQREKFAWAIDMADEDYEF
Protocol: Samples dissolved in 100% DMSO as either […] or 10 mg/ml solutions, unless otherwise stated, were diluted in Tris-EDTA buffer. Marine bacteriophage PM2 DNA (Boehringer Mannheim) was also diluted in Tris-EDTA buffer to a concentration of 0.02 µg/µl. Different dilutions of compound being evaluated were mixed with diluted DNA and this mixture was added to 1000 unit (one unit of enzyme activity is defined as the amount capable of relaxing 100 ng of supercoiled DNA in approximately 30 minutes at 37°C) aliquots of purified human topoisomerase I (Topogen) in 2X reaction buffer to start the reaction. The compound - DNA - enzyme mixture was incubated for 30 minutes at 37° C before stopping the reaction with warm stop buffer containing sodium dodecyl sulfate and proteinase K (Sigma). These mixtures were allowed to incubate at 37° C for another 10 minutes, at which time the mixtures were removed from the waterbath and extracted with a 24:1 mixture of chloroform/isoamyl alcohol. Following centrifugation, aliquots of the aqueous phases were placed in wells of a 0.9% agarose (SeaKem) gel in Tris-borate buffer containing 0.5 µg/ml of ethidium bromide and subjected to electrophoresis for 15 hours to separate the different topological isomers and nicked and broken DNAs. After destaining the gel in water, the ethidium bromide stained DNA reaction products were visualized by exposing the gel to UV irradiation. Negatives of photographs of the irradiated gels were scanned with a densitometer and areas under the peaks were calculated in order to obtain percent single strand DNA break formation for each sample. A median effective concentration(EC50) was obtained for each compound by interpolation between points of the resulting dose - effect curve which defines the potency of the compound for its effect for inducing topoisomerase I mediated single strand breaks in DNA.

[2] = system: P388 leukemia cells; test: In-vivo anti-tumor efficacy against ip implanted P388 leukemia; design: species or system mice (BDF1 or CDF1); MST: unit not given here; conditions: for T/C (%): ip, MST(T)/MST(C) x 100, activity defined as >= 125%; for MST: one ip injection one day after implant, median survival time of treated mice
Protocol: In-vivo antitumor experiments were initiated by implanting mice (BDF1 or CDF1) ip with 10(6) P388 leukemia cells. Treatments were initiated one day after implant and involved one ip injection per dose level; several dose levels were evaluated per compound. Six mice were typically used per dose level in treatment groups, and eight to ten mice were used as parallel untreated leukemic controls. Evaluation of activity was made on the basis of comparing the median survival time (MST) of treated (T) mice with the MST of control (C) mice. Activity was defined as a %T/C of > or = 125%, calculated as: MST(T)/MST(C) x 100 = %T/C Table I

[3] = system: HCT116 human colon carcinoma cells; test: In-vitro cell-based cytotoxicity, XTT assay; conditions: HCT-116, 72 hrs incubation, absorbance at 450 nm
Protocol: The proliferation inhibition activity against human colon cell line was measured as follows.
Cytotoxicity was assessed in HCT116 human colon carcinoma cells by XTT (2,3-bis(2-methoxy-4-nitro- 5-sulfophenyl)-5-[(phenylamino)carbonyl]-2H-tetrazolium hydroxide assay as described in the literature by Scudiero, DA, Shoemaker, RH, Paull, KD, Monks, A, Tierney, S, Nofziger, TH, Currens, MJ, Seniff, D, and Boyd, MR. Evaluation of a soluble tetrazolium/formazan assay for cell growth and drug sensitivity in culture using human and other tumor cell lines, was done according to the procedure described in Cancer Res. 48: 4827-4833, 1988. Cells were plated at 4000 cells/well in 96 well microtiter plates and 24 hrs later drugs were added and serial diluted. The cells were incubated at 37° C for 72 hrs at which time the tetrazolium dye, XTT, containing phenazine methosulfate was added. A dehydrogenase enzyme in live cells reduces the XTT to a form that absorbs light at […] which can be quantitated spectrophotometrically. The greater the absorbance the greater the number of live cells. The results are expressed as an IC50 which is the drug concentration required to inhibit cell proliferation (i.e. absorbance at 450 nm) to 50% of that of untreated control cells.

[N-]=[N+]=NC[C@H]1O[C@@H](n2c3ccc(F)cc3c3c4c(c5c6cc(F)ccc6[nH]c5c32)C(=O)N(O)C4=O)[C@H](O)[C@@H](O)[C@@H]1O [Example 30, 3,9-Difluoro-12,13-dihydro-13-[6-azido-β-D-glucopyranosyl]-5H-indolo[2,3-a]pyrrolo [3,4-c] carbazole-5,7(6-hydroxy)dione]
pEC50 [1]: > 8.00

O=C1NC(=O)c2c1c1c3cc(F)ccc3[nH]c1c1c2c2cc(F)ccc2n1[C@@H]1O[C@H](CN2CCOCC2)[C@@H](O)[C@H](O)[C@H]1O [Example 29, 3,9-Difluoro-12,13-dihydro-13-[6-(4N-morpholino)-β-D-glucopyranosyl]-5H-indolo[2,3-a]pyrrolo [3,4-c] carbazole-5,7(6H)-dione]
pEC50 [1]: 8.00 | T/C (%) ([2]; P388, 25 mg/kg/dose): 127% | MST ([2]; P388, 25 mg/kg/dose): 14.0 | T/C (%) ([2]; P388, 50 mg/kg/dose): 109% | MST ([2]; P388, 50 mg/kg/dose): 12.0 | T/C (%) ([2]; P388, 100 mg/kg/dose): 150% | MST ([2]; P388, 100 mg/kg/dose): 16.5 | T/C (%) ([2]; P388, 200 mg/kg/dose): 91% | MST ([2]; P388, 200 mg/kg/dose): 10 | pIC50 [3]: 7.05

O=C1NC(=O)c2c1c1c3cc(F)ccc3[nH]c1c1c2c2cc(F)ccc2n1[C@@H]1O[C@H](CF)[C@@H](O)[C@H](O)[C@H]1O [Example 47]
pEC50 [1]: 7.00

NC[C@H]1O[C@@H](n2c3ccc(F)cc3c3c4c(c5c6cc(F)ccc6[nH]c5c32)C(=O)N(O)C4=O)[C@H](O)[C@@H](O)[C@@H]1O [Example 31, 3,9-Difluoro-12,13-dihydro-13-[6-amino-β-D-glucopyranosyl]-5H-indolo[2,3-a]pyrrolo [3,4-c] carbazole-5,7(6-hydroxy)dione]
pEC50 [1]: > 8.00

NC[C@H]1O[C@@H](n2c3ccc(F)cc3c3c4c(c5c6cc(F)ccc6[nH]c5c32)C(=O)NC4=O)[C@H](O)[C@@H](O)[C@@H]1O [Example 19]
pEC50 [1]: 7.40 | Topo-I activity [1]: sub micro molar | T/C (%) ([2]; P388, 25 mg/kg/dose): 155% | MST ([2]; P388, 25 mg/kg/dose): 17.0 | T/C (%) ([2]; P388, 50 mg/kg/dose): 168% | MST ([2]; P388, 50 mg/kg/dose): 18.5 | T/C (%) ([2]; P388, 100 mg/kg/dose): 182% | MST ([2]; P388, 100 mg/kg/dose): 20.0 | T/C (%) ([2]; P388, 200 mg/kg/dose): 82% | MST ([2]; P388, 200 mg/kg/dose): 9.0 | anti-tumor activity ([2]; result in words): effective anti-tumor agent | pIC50 [3]: 6.96

CN1CCN(C[C@H]2O[C@@H](n3c4ccc(F)cc4c4c5c(c6c7cc(F)ccc7[nH]c6c43)C(=O)NC5=O)[C@H](O)[C@@H](O)[C@@H]2O)CC1 [Example 35]
pEC50 [1]: 6.12 | pIC50 [3]: 6.30

NC[C@H]1O[C@@H](n2c3cc(F)ccc3c3c4c(c5c6ccc(F)cc6[nH]c5c32)C(=O)N(N)C4=O)[C@H](O)[C@@H](O)[C@@H]1O [Example 18, 6-Amino-13-(6-amino-6-deoxy-β-D-glucopyranosyl)-2,10-difluoro-12,13-dihydro-5H-indolo[2,3-a]pyrrolo[3,4-c]carbazole-5,7(6H)-dione]
Topo-I activity (concentration without activity) [1]: greater than 100 micro molar | pEC50 [1]: < 4.00 | pIC50 [3]: < 5.84

CO[C@H]1[C@H](O)[C@@H](O)[C@H](n2c3c(Cl)cccc3c3c4c(c5c6cccc(Cl)c6[nH]c5c32)C(=O)NC4=O)O[C@@H]1CO [rebeccamycin, reference compound]
Topo-I activity [1]: not Topo-I active

CS(=O)(=O)OC[C@H]1O[C@@H](n2c3ccc(F)cc3c3c4c(c5c6cc(F)ccc6[nH]c5c32)C(=O)NC4=O)[C@H](O)[C@@H](O)[C@@H]1O [Example 15, 3,9-Difluoro-12,13-dihydro-13-[6-O-(methylsulfonyl)-β-D-glucopyranosyl]-5H-indolo[2,3-a]pyrrolo[3,4-c]carbazole-5,7(6H)-dione]
pEC50 [1]: 7.52 | pIC50 [3]: 6.59

O=C1c2c(c3c4cc(F)ccc4n([C@@H]4O[C@H](CF)[C@@H](O)[C@H](O)[C@H]4O)c3c3sc4ccc(F)cc4c23)C(=O)N1O [Example 69]
pEC50 [1]: 7.52

O=C1NC(=O)c2c1c1c3cc(F)ccc3[nH]c1c1c2c2cc(F)ccc2n1[C@@H]1O[C@H](Cn2ccnc2)[C@@H](O)[C@H](O)[C@H]1O [Example 34]
pEC50 [1]: 4.64

CCN(CC)C[C@H]1O[C@@H](n2c3ccc(F)cc3c3c4c(c5c6cc(F)ccc6[nH]c5c32)C(=O)N(O)C4=O)[C@H](O)[C@@H](O)[C@@H]1O [Example 68]
pEC50 [1]: 7.52

O=C1c2c(c3c4cc(F)ccc4n([C@@H]4O[C@H](CF)[C@@H](O)[C@H](O)[C@H]4O)c3c3[nH]c4ccc(F)cc4c23)C(=O)N1O [Example 48]
pEC50 [1]: 6.40
